Common to all, as to assay type: functional
Test [1] deals with T1, Cdk-related protein kinase 6 (Plasmodium falciparum, UniProt O77239).
T1 sequence (O77239 whole entry): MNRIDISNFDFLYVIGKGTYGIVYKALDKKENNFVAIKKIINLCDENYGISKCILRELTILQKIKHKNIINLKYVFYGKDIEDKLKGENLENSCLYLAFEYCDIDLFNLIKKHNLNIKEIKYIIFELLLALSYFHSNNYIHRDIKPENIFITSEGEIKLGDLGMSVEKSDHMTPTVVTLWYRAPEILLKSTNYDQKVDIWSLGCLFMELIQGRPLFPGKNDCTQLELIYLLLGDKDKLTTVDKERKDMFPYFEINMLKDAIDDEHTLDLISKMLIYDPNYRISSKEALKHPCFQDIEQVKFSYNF
In words: Final concentrations were 1.5 uM ATP, 5 mM MnCl2, and 15 ug/ml PK6 in a buffer of 100 mM Tris-HCl (pH 7.5). 50 ug/mL MBP was provided as the substrate; 10 uM staurosporine was used as a control inhibitor. Incubation time was 3 hours and 40 minutes.The catalytic activity of each kinase was considered proportional to ATP consumed, as determined from measurements of residual [ATP] with the luciferase-based reagent Kinase-Glo (Promega) following incubation. Luminescence (proportional to residual [ATP]) was measured on the plate readers FLx800 (BioTek Instruments, Winooski, VT, USA) and MicroBeta2. In general terms: Kinase-Glo reads ATP consumption through a luciferase reaction.

The target of test [2] is T2, Putative uncharacterized protein pk7 (Plasmodium falciparum, UniProt O96214).
T2 sequence (O96214 whole entry): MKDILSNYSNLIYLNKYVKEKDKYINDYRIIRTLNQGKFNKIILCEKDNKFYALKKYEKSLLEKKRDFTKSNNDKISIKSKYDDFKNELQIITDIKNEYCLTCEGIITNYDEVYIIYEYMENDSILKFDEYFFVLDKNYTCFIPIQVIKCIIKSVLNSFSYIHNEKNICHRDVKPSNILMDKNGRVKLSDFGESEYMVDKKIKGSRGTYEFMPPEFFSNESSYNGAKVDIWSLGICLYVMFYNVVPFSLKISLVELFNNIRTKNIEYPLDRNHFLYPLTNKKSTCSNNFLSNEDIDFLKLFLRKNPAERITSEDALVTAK
In words: Final concentrations were 1 uM ATP, 2 mM DTT, 20 mM MgCl2, 2 mM MnCl2, 0.01% BSA, and 6 ug/ml PK7, in a buffer of 20 mM Tris-HCl (pH 7.5). The enzyme itself was the only substrate present (since autophosphorylation occurs); 100 uM 1NA-PP1 was used as a control inhibitor. Incubation time was 3 hours.

The target in test [3] is T3, Mitogen-activated protein kinase (Plasmodium falciparum, UniProt Q25917).
T3 sequence (Q25917 whole entry): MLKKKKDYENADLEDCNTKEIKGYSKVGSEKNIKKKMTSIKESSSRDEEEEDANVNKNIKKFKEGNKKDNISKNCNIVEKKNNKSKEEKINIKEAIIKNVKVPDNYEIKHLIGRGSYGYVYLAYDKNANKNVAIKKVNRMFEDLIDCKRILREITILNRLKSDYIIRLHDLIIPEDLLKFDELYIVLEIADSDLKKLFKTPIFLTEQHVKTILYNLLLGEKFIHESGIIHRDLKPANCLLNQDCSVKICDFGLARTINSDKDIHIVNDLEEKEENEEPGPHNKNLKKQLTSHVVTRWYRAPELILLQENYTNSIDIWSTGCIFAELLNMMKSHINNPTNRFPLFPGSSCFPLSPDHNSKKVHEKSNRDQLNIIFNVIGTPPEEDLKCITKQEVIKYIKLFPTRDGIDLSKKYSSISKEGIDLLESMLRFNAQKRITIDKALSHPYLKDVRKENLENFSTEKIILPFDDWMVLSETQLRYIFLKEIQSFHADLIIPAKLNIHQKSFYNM
In words: Final concentrations were 1 uM ATP, 0.5 mM DTT, 1 mM MgCl2, 0.5 mg/mL BSA, and 10 ug/ml MAP2 in a buffer of 50 mM HEPES (pH 7.0). 0.5 mg/mL histone III-S served as the substrate (13); 100 uM AMP-PNP, an ATP analog, was used as a control inhibitor. Incubation time was 4 hours.

Test [4] has as its target Calcium-dependent protein kinase 1 (Plasmodium falciparum, UniProt P62344). Description: MMV: CDPK1 Protein kinase inhibition assay using recombinant PfCDPK1, syntide 2 peptide substrate, ATP and KinaseGlo to measure % inhibition at 1 uM MMV box compound.
The target of test [5] is T4, Calcium-dependent protein kinase 4 (Plasmodium falciparum (isolate 3D7), UniProt Q8IBS5).
T4 sequence (Q8IBS5 whole entry): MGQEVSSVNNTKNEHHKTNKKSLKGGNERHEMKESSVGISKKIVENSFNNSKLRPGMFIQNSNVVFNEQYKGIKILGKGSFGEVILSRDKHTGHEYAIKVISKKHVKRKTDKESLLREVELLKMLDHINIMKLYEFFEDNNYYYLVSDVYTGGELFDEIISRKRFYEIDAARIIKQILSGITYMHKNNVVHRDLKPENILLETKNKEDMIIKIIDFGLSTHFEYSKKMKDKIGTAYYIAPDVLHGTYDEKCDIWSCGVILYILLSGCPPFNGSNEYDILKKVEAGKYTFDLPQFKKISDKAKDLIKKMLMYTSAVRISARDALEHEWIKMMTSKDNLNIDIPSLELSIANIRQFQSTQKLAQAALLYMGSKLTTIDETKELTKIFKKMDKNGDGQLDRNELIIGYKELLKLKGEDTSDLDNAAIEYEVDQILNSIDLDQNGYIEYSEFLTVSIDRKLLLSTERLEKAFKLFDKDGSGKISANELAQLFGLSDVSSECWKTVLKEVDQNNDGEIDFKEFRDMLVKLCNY
Description: MMV: CDPK4 Protein kinase inhibition assay using recombinant PfCDPK4, syntide2 peptide substrate, ATP and KinaseGlo to measure % inhibition at 1 uM MMV box compound.

A further test has as its target T5, Proline--tRNA ligase (Plasmodium falciparum (isolate 3D7), UniProt Q8I5R7).
T5 sequence (Q8I5R7 whole entry): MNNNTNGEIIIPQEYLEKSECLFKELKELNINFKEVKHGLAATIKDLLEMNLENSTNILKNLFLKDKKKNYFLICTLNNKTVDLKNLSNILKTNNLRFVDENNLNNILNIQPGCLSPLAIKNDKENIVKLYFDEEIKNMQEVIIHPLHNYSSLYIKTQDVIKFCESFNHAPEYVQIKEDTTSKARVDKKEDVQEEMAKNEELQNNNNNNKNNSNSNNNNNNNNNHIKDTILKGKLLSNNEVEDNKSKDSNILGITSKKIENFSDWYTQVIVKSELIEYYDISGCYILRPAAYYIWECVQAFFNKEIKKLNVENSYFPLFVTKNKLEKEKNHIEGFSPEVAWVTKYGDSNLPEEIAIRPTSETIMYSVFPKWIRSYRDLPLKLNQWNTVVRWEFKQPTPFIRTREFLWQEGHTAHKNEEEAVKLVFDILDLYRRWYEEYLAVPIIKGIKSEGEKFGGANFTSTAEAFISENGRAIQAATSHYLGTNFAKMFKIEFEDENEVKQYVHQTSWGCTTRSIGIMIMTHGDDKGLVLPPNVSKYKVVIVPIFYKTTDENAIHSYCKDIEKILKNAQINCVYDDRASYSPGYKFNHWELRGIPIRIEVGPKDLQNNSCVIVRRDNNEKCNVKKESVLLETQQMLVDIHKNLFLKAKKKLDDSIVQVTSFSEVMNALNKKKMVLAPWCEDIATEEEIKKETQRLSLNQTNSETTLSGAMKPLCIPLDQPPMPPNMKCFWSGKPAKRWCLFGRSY
In words: MMV: ProRS recombinant Plasmodium falciparum Prolyl-tRNA-synthetase, assay with yeast tRNA, ATP, and proline and 3 uM MMV malaria box compound, assay read out with kinase glo as % inhibition.

For the next test, the target named is Lysine--tRNA ligase (Plasmodium falciparum (isolate 3D7), UniProt Q8IDJ8). Description: MMV: KRS recombinant Plasmodium falciparum Lysyl-tRNA-synthetase, assay with yeast tRNA, ATP, and lysine and 3 uM MMV malaria box compound, assay read out with kinase glo as % inhibition.
Lysine--tRNA ligase, sequence (Q8IDJ8 whole entry): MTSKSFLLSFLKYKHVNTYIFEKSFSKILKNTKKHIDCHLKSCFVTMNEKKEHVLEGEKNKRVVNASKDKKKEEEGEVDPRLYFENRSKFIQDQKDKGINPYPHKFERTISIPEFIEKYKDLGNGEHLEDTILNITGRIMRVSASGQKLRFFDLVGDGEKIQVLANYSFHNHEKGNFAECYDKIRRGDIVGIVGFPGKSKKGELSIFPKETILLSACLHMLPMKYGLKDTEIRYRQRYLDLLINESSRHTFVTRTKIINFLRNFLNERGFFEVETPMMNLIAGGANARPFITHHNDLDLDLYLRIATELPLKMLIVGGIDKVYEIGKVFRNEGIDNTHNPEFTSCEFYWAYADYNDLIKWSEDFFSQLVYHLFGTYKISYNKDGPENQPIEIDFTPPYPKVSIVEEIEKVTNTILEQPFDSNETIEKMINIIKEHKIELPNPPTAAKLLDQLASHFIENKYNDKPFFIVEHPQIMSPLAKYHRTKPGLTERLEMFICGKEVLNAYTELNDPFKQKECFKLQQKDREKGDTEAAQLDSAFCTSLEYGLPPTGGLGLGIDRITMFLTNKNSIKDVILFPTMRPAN

Structures are written as SMILES.

This passage reports IC50 results from ChEMBL document CHEMBL3301562, “MMV Box screening against Plasmodium falciparum protein kinases and aminoacyl tRNA synthetases”.

One may read the IC50 as the point on the concentration scale where inhibition reaches its midpoint.

Calcium-dependent protein kinase 1, sequence (P62344 whole entry): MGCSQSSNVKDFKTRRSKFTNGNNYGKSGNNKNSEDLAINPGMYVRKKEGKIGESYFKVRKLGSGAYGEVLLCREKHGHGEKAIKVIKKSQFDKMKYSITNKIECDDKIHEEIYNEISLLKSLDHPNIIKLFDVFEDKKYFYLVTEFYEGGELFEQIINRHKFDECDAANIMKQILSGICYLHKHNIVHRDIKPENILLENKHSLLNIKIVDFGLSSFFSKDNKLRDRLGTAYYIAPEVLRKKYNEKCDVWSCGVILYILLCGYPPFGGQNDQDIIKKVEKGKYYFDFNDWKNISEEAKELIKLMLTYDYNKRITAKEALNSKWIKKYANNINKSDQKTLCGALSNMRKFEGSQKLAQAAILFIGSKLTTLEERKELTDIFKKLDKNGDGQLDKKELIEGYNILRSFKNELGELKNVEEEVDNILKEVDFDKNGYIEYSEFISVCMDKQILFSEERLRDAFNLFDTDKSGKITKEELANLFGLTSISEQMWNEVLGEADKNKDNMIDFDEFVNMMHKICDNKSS

As to `O=C(Nc1ccc(Cl)c(Cl)c1)Nc1ccc(Cl)c(Cl)c1`, the IC50 in test [1] was > 1000 nM; in test [2], > 1000 nM; in test [3], > 1000 nM; in test [4], > 1000 nM; in test [5], > 1000 nM; at Proline--tRNA ligase, > 2500 nM. The IC50 on Lysine--tRNA ligase was > 2500 nM.

Turning to `N=c1n(CCN2CCCCC2)c2ccccc2n1CC(=O)c1ccc(Cl)c(Cl)c1`, the IC50 was > 1000 nM in test [1]; > 1000 nM in test [2]; > 1000 nM in test [3]; > 1000 nM in test [4]; > 1000 nM in test [5]; > 2500 nM on Proline--tRNA ligase. Further, at Lysine--tRNA ligase, the IC50 was > 2500 nM.

For `COc1ccc(-c2nc(N3CCN(C(=O)C4CCCCC4)CC3)c3c4c(sc3n2)CCCC4)cc1`, the IC50 in test [1] is > 1000 nM; in test [2], > 1000 nM; in test [3], > 1000 nM; in test [4], > 1000 nM; in test [5] it was > 1000 nM; at Proline--tRNA ligase, > 2500 nM. Moreover, the IC50 at Lysine--tRNA ligase is > 2500 nM.

In the case of `COc1cc(C(=O)Nc2nc3c(cc4c5c(cccc53)CC4)s2)cc(OC)c1OC`, the IC50 in test [1] is > 1000 nM; in test [2], > 1000 nM; in test [3], > 1000 nM; in test [4], > 1000 nM; in test [5] it was > 1000 nM; at Proline--tRNA ligase it was > 2500 nM. Besides, on Lysine--tRNA ligase, the IC50 was > 2500 nM.

`COc1ccc(CCN2C(=O)c3[nH]nc(-c4cc(Cl)c(C)cc4O)c3C2c2ccccc2F)cc1` (stereo not drawn): the IC50 is > 1000 nM in test [1]; > 1000 nM in test [2]; > 1000 nM in test [3]; > 1000 nM in test [4]; > 1000 nM in test [5]; > 2500 nM at Proline--tRNA ligase. The IC50 at Lysine--tRNA ligase was > 2500 nM.

Turning to `CCOc1ccc(CN2CCN(CC(O)COc3ccc(OCC(O)CN4CCN(Cc5ccc(OCC)cc5)CC4)cc3)CC2)cc1` (stereo not drawn), the IC50 in test [1] is > 1000 nM; in test [2], > 1000 nM; in test [3], > 1000 nM; in test [4], > 1000 nM; in test [5], > 1000 nM; on Proline--tRNA ligase, > 2500 nM. For the same compound, the IC50 at Lysine--tRNA ligase was > 2500 nM.

Consider `COc1ccc(CCn2c(=N)c(C(=O)NCc3cccnc3)cc3c(=O)n4cccc(C)c4nc32)cc1`, for which the IC50 in test [1] is > 1000 nM; in test [2] it was > 1000 nM; in test [3] it was > 1000 nM; in test [4], > 1000 nM; in test [5] it was > 1000 nM; on Proline--tRNA ligase it was > 2500 nM. Further, at Lysine--tRNA ligase, the IC50 is > 2500 nM.

On to `COc1ccc(Nc2cc(C)nc(NCc3ccccc3)n2)cc1`, for which the IC50 in test [1] was > 1000 nM; in test [2] it was > 1000 nM; in test [3], > 1000 nM; in test [4] it was > 1000 nM; in test [5], > 1000 nM; at Proline--tRNA ligase, > 2500 nM. The IC50 at Lysine--tRNA ligase was > 2500 nM.

As to `Oc1ccc2ccccc2c1CNc1nc2ccccc2[nH]1`, the IC50 in test [1] was > 1000 nM; in test [2], > 1000 nM; in test [3], > 1000 nM; in test [4], > 1000 nM; in test [5], > 1000 nM; on Proline--tRNA ligase it was > 2500 nM. Also, the IC50 at Lysine--tRNA ligase was > 2500 nM.

As for `O=C1c2ccc3c4c(ccc(c24)C(=O)N1CCCCO)C(=O)N(CCCCO)C3=O`, the IC50 was > 1000 nM in test [1]; > 1000 nM in test [2]; > 1000 nM in test [3]; > 1000 nM in test [4]; > 1000 nM in test [5]; > 2500 nM on Proline--tRNA ligase. Moreover, at Lysine--tRNA ligase, the IC50 was > 2500 nM.

For `COc1ccc(C(=O)C(CCC(CNC(C)(C)C)C(=O)c2ccc(OC)cc2)CNC(C)(C)C)cc1` (stereo not drawn), the IC50 was > 1000 nM in test [1]; > 1000 nM in test [2]; > 1000 nM in test [3]; > 1000 nM in test [4]; > 1000 nM in test [5]; > 2500 nM on Proline--tRNA ligase. Further, the IC50 on Lysine--tRNA ligase is > 2500 nM.

Turning to `COc1cc(-c2nc(-c3ccccc3)c(-c3ccccc3)[nH]2)cc(OC)c1O`, the IC50 in test [1] is > 1000 nM; in test [2], > 1000 nM; in test [3], > 1000 nM; in test [4], > 1000 nM; in test [5], > 1000 nM; at Proline--tRNA ligase, > 2500 nM. The IC50 at Lysine--tRNA ligase was > 2500 nM.

For `COc1cc(CNCCc2ccc(Cl)cc2)cc(OC)c1O`, the IC50 in test [1] is > 1000 nM; in test [2], > 1000 nM; in test [3] it was > 1000 nM; in test [4], > 1000 nM; in test [5], > 1000 nM; on Proline--tRNA ligase, > 2500 nM. In addition, the IC50 at Lysine--tRNA ligase was > 2500 nM.

Consider `Cc1ccc(C)c(-c2csc(Nc3ccc(C)c(C)c3)n2)c1`, for which the IC50 in test [1] is > 1000 nM; in test [2], > 1000 nM; in test [3], > 1000 nM; in test [4], > 1000 nM; in test [5] it was > 1000 nM; at Proline--tRNA ligase it was > 2500 nM. Moreover, the IC50 on Lysine--tRNA ligase is > 2500 nM.
